A word on the Ki: it is a dissociation constant, usually derived from enzyme kinetics or from competition with a known ligand.

The values below come from patent US8552202B2, “Furo[3, 2-B] pyrrol-3-ones as cathespin S inhibitors” (Amura Therapeutics Limited, priority 2008, dated 2013).

Structures are written as SMILES. A value given as a limit tells only on which side of the number the result lay.

Holding throughout (assay type): biochemical
For test [1], the target named is Human recombinant cathepsin V (Homo sapiens (Human), UniProt O60911). Briefly: In vitro cathepsin Ki inhibition measurements, cathepsin V. Particulars: read-out: In vitro Ki (nM) vs Cath V. Here is the method: (§1) Stock solutions of substrate or inhibitor were made up to 10 mM in 100% dimethylsulfoxide (DMSO) (Rathburns, Glasgow, U.K.) and diluted as appropriately required. In all cases the DMSO concentration in the assays was maintained at less than 1% (vol./vol.). The equilibrium inhibition constants (Ki^ss) for each compound were measured under steady-state conditions monitoring enzyme activity as a function of inhibitor concentration. The values were calculated on the assumption of pure competitive behaviour (Cornish-Bowden, A. Fundamentals of enzyme kinetics Portland Press; 1995, 93-128.).
Human recombinant cathepsin V (0.25 nM final, Merck Biosciences) was routinely assayed in 100 mM sodium acetate; pH 5.5 containing 10 mM L-cysteine, 0.001% (vol./vol.) zwittergent 3-12 (Merck Biosciences) and 5 μM Z-Leu-Arg-AMC (KM=0.5 μM) (Amura).
(§2) The apparent inhibition constant (Ki) for each compound was determined on the basis that inhibition was reversible and occurred by a pure-competitive mechanism. The Ki values were calculated, from the dependence of enzyme activity as a function of inhibitor concentration, by direct regression analysis (Prism v 3.02) using Equation 2 (Cornish-Bowden, A., 1995.).
(§3) In situations where the apparent dissociation constant (Ki^app) approached the enzyme concentrations, the Ki^app values were calculated using a quadratic solution in the form described by Equation 3 (Morrison, J. F. Trends Biochem. Sci., 7, 102-105, 1982; Morrison, J. F. Biochim. Biophys. Acta. 185, 269-286, 1969: Stone, S. R. and Hofsteenge, J. Biochemistry, 25, 4622-4628, 1986).
(§4) Curves were fitted by non-linear regression analysis (Prism) using a fixed value for the enzyme concentration. Equation 4 was used to account for the substrate kinetics, where ‘Ki’ is the inhibition constant, ‘[So]’ is the initial substrate concentration and ‘KM^app’ is the apparent macroscopic binding (Michaelis) constant for the substrate (Morrison, 1982).

A further test addresses Human liver cathepsin B (Homo sapiens (Human), UniProt P07858). Briefly: In vitro cathepsin Ki inhibition measurements, cathepsin B. The settings on record: read-out: In vitro Ki (nM) vs Cath B. Here is the method:
as §1
Human liver cathepsin B (0.25 nM final; Merck Biosciences), was routinely assayed in 10 mM bis-tris propane; pH 6.5 containing 1 mM EDTA, 5 mM 2-mercaptoethanol, 1 mM CaCl2 and 60 μM Z-Phe-Arg-AMC ([S]=KM) (Bachem, Weil am Rhein, Germany).
as §2, §3
as §4, with “In Equation 3 ‘vi’ is the observed residual activity, ‘F’ is the difference between the maximum activity (i.e. in the absence of inhibitor) and minimum enzyme activity, ‘Eo’ is the total enzyme concentration, ‘Ki^app’ is the apparent dissociation constant and ‘Io’ is the inhibitor concentration. Curves” for “Curves”

For test [2], the target named is Human recombinant cathepsin K (Homo sapiens (Human), UniProt P43235). Briefly: In vitro cathepsin Ki inhibition measurements, cathepsin K. Particulars: read-out: In vitro Ki (nM) vs Cath K. The protocol:
as §1
Human recombinant cathepsin K (0.25 nM final; B. Turk, Josef, Stefan Institute, Ljubljana, Slovenia), was routinely assayed in 100 mM sodium acetate; pH 5.5 containing 1 mM EDTA, 10 mM L-cysteine and 1.8 μM Z-Leu-Arg-AMC ([S]=KM).
as §2, §3, §4

The target of test [3] is Human recombinant cathepsin S (Homo sapiens (Human), UniProt P25774). Description: In vitro cathepsin Ki inhibition measurements, cathepsin S. The settings on record: for selectivity against other mammalian cathepsins (in words): cathepsin S over other mammalian cathepsins; for Ki: read-out: In vitro Ki (nM) vs Cath S; for improvement in in vitro potency against human cathepsin S: relative to Compound 7. Here is the method:
as §1, §2, §3, §4

For the next test, the target named is Human liver cathepsin L (Homo sapiens (Human), UniProt P07711). Briefly: In vitro cathepsin Ki inhibition measurements, cathepsin L. The settings on record: read-out: In vitro Ki (nM) vs Cath L. The protocol: as §1
Human liver cathepsin L (0.25 nM final, Athens Research and Technology, GA, USA) was routinely assayed in 10 mM bis-tris propane; pH 6.5 containing 1 mM EDTA, 5 mM 2-mercaptoethanol, 1 mM CaCl2 and 4 μM Ac-Phe-Arg-AMC ([S]=KM) (Bachem).
as §2, §3, §4

Sequence of Human recombinant cathepsin S (P25774 115-331): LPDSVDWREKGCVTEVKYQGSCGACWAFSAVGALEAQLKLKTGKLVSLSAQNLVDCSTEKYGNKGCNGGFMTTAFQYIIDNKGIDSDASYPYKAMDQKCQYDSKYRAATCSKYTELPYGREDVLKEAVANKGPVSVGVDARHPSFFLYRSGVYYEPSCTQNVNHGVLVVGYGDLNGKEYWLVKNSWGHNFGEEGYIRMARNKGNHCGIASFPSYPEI
Sequence of Human recombinant cathepsin K (P43235 115-329): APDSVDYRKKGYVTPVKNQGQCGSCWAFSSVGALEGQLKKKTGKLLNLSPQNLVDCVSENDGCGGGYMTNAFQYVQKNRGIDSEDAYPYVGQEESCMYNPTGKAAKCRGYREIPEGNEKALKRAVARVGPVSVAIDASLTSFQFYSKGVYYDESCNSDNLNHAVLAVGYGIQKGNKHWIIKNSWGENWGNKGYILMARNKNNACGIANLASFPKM
Sequence of Human recombinant cathepsin V (O60911 114-334): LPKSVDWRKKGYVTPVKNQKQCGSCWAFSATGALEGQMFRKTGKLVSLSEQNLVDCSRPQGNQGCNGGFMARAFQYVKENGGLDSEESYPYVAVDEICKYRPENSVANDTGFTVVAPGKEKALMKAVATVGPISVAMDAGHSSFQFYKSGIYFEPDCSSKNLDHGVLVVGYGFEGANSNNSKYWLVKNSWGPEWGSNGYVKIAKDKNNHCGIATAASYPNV
Sequence of Human liver cathepsin L (P07711 114-333): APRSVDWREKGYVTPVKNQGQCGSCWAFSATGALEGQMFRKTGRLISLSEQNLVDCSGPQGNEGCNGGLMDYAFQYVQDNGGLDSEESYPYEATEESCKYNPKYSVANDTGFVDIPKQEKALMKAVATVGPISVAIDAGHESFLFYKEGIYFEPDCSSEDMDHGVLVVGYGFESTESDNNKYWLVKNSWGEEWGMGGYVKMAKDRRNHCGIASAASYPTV

Turning to `C[C@H]1CC[C@H]([C@H](NC(=O)c2cccc(-n3cnnn3)c2)C(=O)N2C[C@H](Cl)[C@H]3OCC(=O)[C@H]32)CC1` [EXAMPLE 2, N—((S)-2-((3aS,6S,6aS)-6-chloro-3-oxodihydro-2H-furo[3,2-b]pyrrol-4(5H,6H,6aH)-yl)-1-((1r,4S)-4-methylcyclohexyl)-2-oxoethyl)-3-(1H-tetrazol-1-yl)benzamide], the Ki in test [1] was greater than 10000 nM; on Human liver cathepsin B it was greater than 10000 nM; in test [2] it was greater than 8000 nM; in test [3], 2.2 nM; at Human liver cathepsin L, greater than 10000 nM. The “selectivity against other mammalian cathepsins (in words)” value in test [3] is reported as “high selectivity”. In addition, in test [3], the “improvement in in vitro potency against human cathepsin S” value stood at 77 fold.

With `CC1(C)CCC([C@H](NC(=O)c2cccc(-n3cnnn3)c2)C(=O)N2C[C@H](Cl)[C@H]3OCC(=O)[C@H]32)CC1` [EXAMPLE 3, N—((S)-2-((3aS,6S,6aS)-6-chloro-3-oxodihydro-2H-furo[3,2-b]pyrrol-4(5H,6H,6aH)-yl)-1-(4,4-dimethylcyclohexyl)-2-oxoethyl)-3-(1H-tetrazol-1-yl)benzamide], the Ki is 1700 nM in test [1]; greater than 10000 nM on Human liver cathepsin B; greater than 10000 nM in test [2]; 12 nM in test [3]; greater than 10000 nM at Human liver cathepsin L. Also, the “selectivity against other mammalian cathepsins (in words)” value in test [3] was “high selectivity”. The “improvement in in vitro potency against human cathepsin S” value in test [3] stood at 15 fold.
